Species: Rattus norvegicus
Test: DrugMatrix - Regimen: Daily Repeat
Format: toxicity, organism-based, Sprague-Dawley
Design: regimen Daily Repeat, gender Male, age 6-8 weeks
Details: in vivo, po, route oral GAVAGE, […]; for URIC ACID / LIPASE / ALANINE AMINOTRANSFERASE / ALBUMIN / ALKALINE PHOSPHATASE / ASPARTATE AMINOTRANSFERASE / BLOOD UREA NITROGEN / CARBON DIOXIDE / CHLORIDE / CHOLESTEROL / CREATINE PHOSPHOKINASE / CREATININE / GLUCOSE / LACTATE DEHYDROGENASE / PHOSPHORUS / POTASSIUM / SODIUM / TOTAL BILIRUBIN / TOTAL PROTEIN: tissue Plasma; for ABSOLUTE BASOPHIL / BASOPHIL / NUCLEATED RED BLOOD CELLS / ABSOLUTE EOSINOPHIL / ABSOLUTE LYMPHOCYTE / ABSOLUTE MONOCYTE / ABSOLUTE SEGMENTED NEUTROPHIL / EOSINOPHIL / ERYTHROCYTE COUNT / HEMATOCRIT / HEMOGLOBIN / LEUKOCYTE COUNT / LYMPHOCYTE / MEAN CORPUSCULAR HEMOGLOBIN / MEAN CORPUSCULAR HEMOGLOBIN CONCENTRATION / MEAN CORPUSCULAR VOLUME / MONOCYTE / NEUTROPHIL / PLATELET COUNT: tissue Blood
[1] = 650 mg/kg, 72 h, dose level High, time 3 day
[2] = 650 mg/kg, 120 h, dose level High, time 5 day
[3] = 72 h, dose 6.5 mg/Kg, dose level Low, time 3 day
[4] = 120 h, dose 6.5 mg/Kg, dose level Low, time 5 day

Structure (SMILES): O=C(c1ccc(OCCN2CCCCC2)cc1)c1c(-c2ccc(O)cc2)sc2cc(O)ccc12 [RALOXIFENE]
- URIC ACID (10 mg/kg, 120 h, dose level M1, time 5 day): 0.77 mg/dL
- ABSOLUTE BASOPHIL [1]: 0 CELLS/uL
- BASOPHIL [1]: 0%
- NUCLEATED RED BLOOD CELLS [1]: 0 /100WBC
- LIPASE [1]: 10.33 u/L
- URIC ACID [1]: 0.67 mg/dL
- ABSOLUTE BASOPHIL [2]: 0 CELLS/uL
- BASOPHIL [2]: 0%
- NUCLEATED RED BLOOD CELLS [2]: 0 /100WBC
- ABSOLUTE BASOPHIL [3]: 0 CELLS/uL
- ABSOLUTE EOSINOPHIL [3]: 59.33 CELLS/uL
- ABSOLUTE LYMPHOCYTE [3]: 5494.67 CELLS/uL
- ABSOLUTE MONOCYTE [3]: 60.33 CELLS/uL
- ABSOLUTE SEGMENTED NEUTROPHIL [3]: 452.33 CELLS/uL
- BASOPHIL [3]: 0%
- EOSINOPHIL [3]: 0.67%
- ERYTHROCYTE COUNT [3]: 5.5 x10E6/uL
- HEMATOCRIT [3]: 35.2%
- HEMOGLOBIN [3]: 13.7 G/DL
- LEUKOCYTE COUNT [3]: 6.07 x10E3/uL
- LYMPHOCYTE [3]: 90.33%
- MEAN CORPUSCULAR HEMOGLOBIN [3]: 24.87 pg
- MEAN CORPUSCULAR HEMOGLOBIN CONCENTRATION [3]: 38.93 G/DL
- MEAN CORPUSCULAR VOLUME [3]: 63.93 fL
- MONOCYTE [3]: 1.33%
- NEUTROPHIL [3]: 7.67%
- NUCLEATED RED BLOOD CELLS [3]: 0.67 /100WBC
- PLATELET COUNT [3]: 1046.33 x10E3/uL
- ALANINE AMINOTRANSFERASE [3]: 63 u/L
- ALBUMIN [3]: 4.13 G/DL
- ALKALINE PHOSPHATASE [3]: 536.33 u/L
- ASPARTATE AMINOTRANSFERASE [3]: 92 u/L
- BLOOD UREA NITROGEN [3]: 8.67 mg/dL
- CARBON DIOXIDE [3]: 29.67 mmol/L
- CHLORIDE [3]: 98.33 MEQ/L
- CHOLESTEROL [3]: 41 mg/dL
- CREATINE PHOSPHOKINASE [3]: 405 u/L
- CREATININE [3]: 0.12 mg/dL
- GLUCOSE [3]: 157 mg/dL
- LACTATE DEHYDROGENASE [3]: 73.33 u/L
- LIPASE [3]: 9.67 u/L
- PHOSPHORUS [3]: 10.5 mg/dL
- POTASSIUM [3]: 5.24 MEQ/L
- SODIUM [3]: 143.33 MEQ/L
- TOTAL BILIRUBIN [3]: 0.13 mg/dL
- TOTAL PROTEIN [3]: 6.07 G/DL
- URIC ACID [3]: 0.63 mg/dL
- ABSOLUTE BASOPHIL [4]: 0 CELLS/uL
- ABSOLUTE EOSINOPHIL [4]: 0 CELLS/uL
- ABSOLUTE LYMPHOCYTE [4]: 6955.67 CELLS/uL
- ABSOLUTE MONOCYTE [4]: 124.33 CELLS/uL
- ABSOLUTE SEGMENTED NEUTROPHIL [4]: 286.67 CELLS/uL
- BASOPHIL [4]: 0%
- EOSINOPHIL [4]: 0%
- ERYTHROCYTE COUNT [4]: 5.53 x10E6/uL
- HEMATOCRIT [4]: 34.77%
- HEMOGLOBIN [4]: 13.37 G/DL
- LEUKOCYTE COUNT [4]: 7.37 x10E3/uL
- LYMPHOCYTE [4]: 94.33%
- MEAN CORPUSCULAR HEMOGLOBIN [4]: 24.17 pg
- MEAN CORPUSCULAR HEMOGLOBIN CONCENTRATION [4]: 38.47 G/DL
- MEAN CORPUSCULAR VOLUME [4]: 62.87 fL
- MONOCYTE [4]: 1.67%
- NEUTROPHIL [4]: 4%
- NUCLEATED RED BLOOD CELLS [4]: 0 /100WBC
- PLATELET COUNT [4]: 1226.67 x10E3/uL
- ALANINE AMINOTRANSFERASE [4]: 57 u/L
- ALBUMIN [4]: 4.1 G/DL
- ALKALINE PHOSPHATASE [4]: 411.67 u/L
- ASPARTATE AMINOTRANSFERASE [4]: 105.33 u/L
- BLOOD UREA NITROGEN [4]: 10.33 mg/dL
- CARBON DIOXIDE [4]: 28.33 mmol/L
- CHLORIDE [4]: 99.33 MEQ/L
- CHOLESTEROL [4]: 26 mg/dL
- CREATINE PHOSPHOKINASE [4]: 332.33 u/L
- CREATININE [4]: 0.19 mg/dL
- GLUCOSE [4]: 169 mg/dL
- LACTATE DEHYDROGENASE [4]: 99.67 u/L
- LIPASE [4]: 30 u/L
- PHOSPHORUS [4]: 11.23 mg/dL
- POTASSIUM [4]: 5.86 MEQ/L
- SODIUM [4]: 144.43 MEQ/L
- TOTAL BILIRUBIN [4]: 0.1 mg/dL
- TOTAL PROTEIN [4]: 5.87 G/DL
- URIC ACID [4]: 1 mg/dL

— ChEMBL document CHEMBL3885881, “DrugMatrix”
